# Source: patent US20200392107A1, “CYCLIC AMINE DERIVATIVE AND MEDICAL USE THEREOF” (Toray Industries, Inc., priority 2018, published 2020)
# Tests used:
# [1] = system: IL-17 production in mouse splenocytes; experiment: Suppressive effect on IL-17 production by IL-23 stimulation in mouse splenocytes; assay type: cell-based; details: Splenocyte, 72 h, at 5 μmol/L of the test compound, human IL-23 10 ng/mL, cultured 3 days, read-out: IL-17 production inhibition rate (%)
# Description: Using mouse splenocytes, the suppressive effect of the cyclic amine derivative (I) or a pharmacologically acceptable salt thereof on IL-17 production by IL-23 stimulation was evaluated by a partially modified method mentioned in The Journal of Biological Chemistry, 2003, Vol. 278, No. 3, p. 1910-1914.
# A single cell suspension was prepared from the spleen of C57BL/6J mice (male or female, 6 to 30 weeks old) (Charles River Laboratories Japan, Inc. or CLEA Japan, Inc.) and splenocytes were prepared using Histopaque-1083 (Sigma-Aldrich Japan). The culture medium was used by adding 10% FBS (Gibco), 50 U/mL of penicillin-50 μg/mL of streptomycin (Gibco), 50 μmol/L of 2-mercaptoethanol (Gibco), and 100 U/mL of human IL-2 (Cell Science & Technology Institute, Inc.) to RPMI1640 medium (Gibco). A test compound was dissolved in DMSO and then diluted with the culture medium to have a final concentration of DMSO of 0.1% before use. Splenocytes (3×10^5 cells/well) prepared in the culture medium were seeded in wells of a 96-well flat-bottom plate (Corning Incorporated), the test compound and 10 ng/mL of human IL-23 (R & D systems, Inc.) were added thereto, and the cells were cultured at 37° C. under 5% CO2 for 3 days. A well without addition of human IL-23 and without addition of the test compound and a well with addition of human IL-23 and without addition of the test compound were prepared. After completion of the culture, the culture supernatant was collected and the IL-17 production amount in the supernatant was determined by ELISA method (R & D systems, Inc.).
# The IL-17 production inhibition rate (%) was calculated from Formula (2).
# IL-17 production inhibition rate (%)=(1−((IL-17 production amount with addition of IL-23 and with addition of the test compound)−(IL-17 production amount without addition of IL-23 and without addition of the test compound))/((IL-17 production amount with addition of IL-23 and without addition of the test compound)−(IL-17 production amount without addition of IL-23 and without addition of the test compound)))×100 (2).
# [2] = system: imiquimod-induced mouse psoriasis model; experiment: Imiquimod-induced mouse psoriasis model; assay type: in vivo; details: 10 mg/kg orally once daily for 5 days (3 to 7 days after induction); BALB/c mice; vs vehicle, P<0.05
# Description: Using increase in the ear thickness as an index of exacerbation of symptoms, the effect of the cyclic amine derivative (I) or a pharmacologically acceptable salt thereof in an imiquimod-induced mouse psoriasis model was evaluated. The imiquimod-induced mouse psoriasis model was prepared by a partially modified method by Schaper et al. (The Journal of Dermatological Science, 2013, Vol. 71, No. 1, p. 29-36).
# BALB/c mice (male, 7 weeks old) (Charles River Laboratories Japan, Inc.) were used at 8 to 9 weeks old after preliminary breeding. To induce psoriasis-like symptoms, 5 mg each of BESELNA CREAM 5% was applied once daily to the outside of the right and left auricles of the mice for 8 days from the day of first administration of imiquimod (hereinafter referred to as induction day) to 7 days after induction (dose of imiquimod, 0.5 mg/body/day).
# A test compound at a dose of 10 mg/kg was administered to the mice once daily for 5 days from 3 days after induction to 7 days after induction. As the test compound, the compound of Example 1, the compound of Example 4, and the compound of Example 9 were used. The compound of Example 1, the compound of Example 4, and the compound of Example 9 were respectively suspended in a 0.5 w/v % methylcellulose solution and orally administered. The group in which the compound of Example 1 was administered to mice was defined as the Example-1 compound administration group, the group in which the compound of Example 4 was administered was defined as the Example-4 compound administration group, and the group in which the compound of Example 9 was administered was defined as the Example-9 compound administration group. In the vehicle administration group, a vehicle of each test compound (0.5 w/v % methylcellulose solution) was similarly administered.
# The right and left ear thickness before administration of imiquimod (before induction) on the induction day and the right and left ear thickness on the 8th day after induction were measured with a digital micrometer (Mitutoyo Corporation). […]
Structure (SMILES),inhibition at 5 µM [1] [%],"increase in the ear thickness (change in the ear thickness, 8th day after induction) [2]"
"CC(=O)N1CCCC[C@@H]1C(=O)Nc1cc(Cl)c2c(c1)CCN2C[C@H]1CC[C@H](C(F)(F)F)CC1 [Example 9, (R)-1-acetyl-N-(7-chloro-1-((trans-4-(trifluoromethyl)cyclo-hexyl)methyl)indolin-5-yl)piperidine-2-carboxamide]",99.5,statistically significantly suppressed
"CC(=O)N1CCCC[C@@H]1C(=O)Nc1cc(Cl)c2c(c1)CCN2Cc1ccc(C(F)(F)F)cc1 [Example 4, (R)-1-acetyl-N-(7-chloro-1-(4-(trifluoromethyl)benzyl)indolin-5-yl)piperidine-2-carboxamide]",99.9,statistically significantly suppressed
"CC(=O)N1CCCC[C@@H]1C(=O)Nc1cc(Cl)c2c(c1)CCCN2Cc1ccc(C(F)(F)F)cc1 [Example 1, (R)-1-acetyl-N-(8-chloro-1-(4-(trifluoromethyl)benzyl)-1,2,3,4-tetrahydroquinolin-6-yl)piperidine-2-carboxamide]",98,statistically significantly suppressed
